The METLIN SMRT retention time set (Domingo-Almenara et al. 2019)

Test: gradient 5% acetonitrile 3 min, to 50% in 2 min, to 85% in 15 min, held 3 min, 100 µL/min
Settings: column: Zorbax Extend-C18 2.1 x 50 mm; eluents: water / acetonitrile, 0.1% formic acid
Method in brief: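 In both positive and negative ionization mode, a quadrupole time-of-flight mass spectrometer coupled to HPLC analyzed pure standards run in mixtures of ~100 molecules. The Zorbax Extend-C18 column (2.1 × 50 mm, 1.8 μm) was operated at 100 μL/min with water and acetonitrile, each containing 0.1% formic acid. The dead volume was 40 μL and the dwell volume 900 μL. Retention time came from adduct peaks that were computationally picked and individually inspected by hand.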

| Structure (SMILES) | RP-LC retention time [s] |
| --- | --- |
| COc1ccc(CN2CCC3(CC2)CC(C)(O)CCO3)cc1C (stereo unspecified) | 629 |
| CCn1cc(C(=O)N2CCC3(CCC3O)CC2)cn1 (stereo unspecified) | 598 |
| CCNC(=O)C1CCCN(c2nc3ncn(CC(=O)Nc4ccc(OCC)cc4)c(=O)c3s2)C1 (stereo unspecified) | 688 |
| CN1c2ccccc2Oc2nnc(N3CCN(c4ccccn4)CC3)cc21 | 550 |
| O=C(Nc1ccc(OCc2nnc(-c3ccccc3)o2)cc1)c1cccnc1 | 743 |
| CCOc1ccc(C(=O)Nc2nc(-c3ccccc3)cs2)cc1Cl | 1260 |
| Cc1nc(C)c(C(=O)Nc2nc(-c3ccc4c(c3)CCCC4)cs2)s1 | 1170 |
| O=C(NC1CCN(Cc2ccccc2)CC1)C1CC(=O)N(CCc2ccccc2)C1 (stereo unspecified) | 600 |
| CCS(=O)(=O)Nc1ccc(Nc2c3ccccc3nc3ccccc23)c(OC)c1 | 649 |
| CCc1nccn1Cc1nc(-c2ccc(C)cc2)no1 | 646 |
| O=C(c1ccn2c(-c3cccc(Cl)c3)nnc2c1)N1CCN(c2ccccn2)CC1 | 608 |
| Cc1ccc(N2CCN(Cc3nc(-c4ccc(N5CCCC5)nc4)no3)CC2)cc1 | 678 |
| CC1CCN(CCNC(=O)c2nc(CCS(=O)(=O)c3ccc(F)cc3)no2)CC1 | 620 |
| O=C(CCc1c[nH]c2ccccc12)NCCc1c[nH]c2ccc(Cl)cc12 | 861 |
| CCn1ccc2cc(S(=O)(=O)N3CCCN(C(=O)NC4CCCCC4)CC3)ccc21 | 936 |
| NC(=O)C1CCN(C(c2cccc(Cl)c2)c2sc3nc(-c4ccco4)nn3c2O)CC1 (stereo unspecified) | 717 |
| CC(C)Cc1nc2nccc(-c3ccc(F)cc3)n2n1 | 886 |
| CC(C)N1C(=O)c2cccnc2Sc2cc(NC(=O)c3cc(Cl)ccc3F)ccc21 | 973 |
| CCOc1cccc(-c2noc(Cn3c(=O)n(-c4cccc(OC)c4)c(=O)c4sccc43)n2)c1 | 970 |

| Structure (SMILES) | RP-LC retention time [s] |
| --- | --- |
| CCn1c(=O)c(N2CCC(NC(=O)Nc3cc(C)cc(C)c3)CC2)nc2cccnc21 | 1010 |
| Cc1ccc(N2C(=O)CN(S(C)(=O)=O)CC2(C)C(=O)NC2CCCCCC2)cc1F (stereo unspecified) | 905 |
| Cc1ccccc1C(C(=O)NC1CCCCC1)N(C(=O)Cn1ccnc1C)c1cccc(F)c1 (stereo unspecified) | 895 |
| COc1ccc(S(=O)(=O)N2CCCC2)cc1C(=O)NC1CCS(=O)(=O)C1 (stereo unspecified) | 629 |
| Cc1ccc(S(=O)(=O)Cc2noc(-c3ccc(Cl)cc3)n2)cc1 | 1040 |
| CCOC(=O)CCNC(=O)NCc1nnnn1-c1ccc(OCC)cc1 | 675 |
| CCOc1ccccc1C(=O)Nc1cccn2c(C)nnc12 | 790 |
| CN(Cc1ccccc1)c1ccc(-c2noc(CN3CCC4(CC3)OCCO4)n2)cn1 | 745 |
| COc1ccc(NS(=O)(=O)c2cc(-c3nnc(C(=O)N4CCCC4)o3)sc2C)cc1OC | 806 |
| Cc1nc2nc(-c3ccc(C(C)(C)C)cc3)nn2c(C)c1CC(=O)Nc1ccc(Br)cc1 | 1220 |
| Cc1nc(-c2cc(S(=O)(=O)NCc3ccc(OC(C)C)cc3)c(C)s2)cs1 | 1080 |
| CCCN(CCC)S(=O)(=O)c1cccc(-c2cn3cccc(C)c3n2)c1 | 774 |
| CC(C)(C)NC(=O)c1ccc2c(c1)CCCN2S(C)(=O)=O | 746 |
| Cc1csc(-c2cc(S(=O)(=O)N3CCN(c4ncccn4)CC3)c(C)n2C)n1 | 958 |
| O=C(Nc1cccn2cnnc12)c1cccc(C(F)(F)F)c1 | 738 |
| c1ccc(-c2nnc(-c3cccnc3)o2)cc1 | 666 |
| O=C(CCC1CCCC1)NCCc1noc(C2CC2)n1 | 807 |
| CC1CN(C(=O)CCC(=O)N2CCN(c3ccccn3)CC2)c2ccccc2O1 (stereo unspecified) | 623 |
| COC(=O)c1cccc(C(=O)Nc2ccccc2)n1 | 800 |

| Structure (SMILES) | RP-LC retention time [s] |
| --- | --- |
| CC(NC(=O)c1ccc(F)c(F)c1)C(=O)Nc1nc2ccccc2[nH]1 (stereo unspecified) | 655 |
| COc1ccc(-c2nc3ccc(Br)cn3c2Nc2ccccc2C)cc1 | 830 |
| Cc1nnc2c(=O)n(CC(=O)NCc3ccc(F)cc3F)c3cccnc3n12 | 680 |
| CCn1c(C(=O)Nc2ccc(C)cc2C)cc2sc(Cl)cc21 | 1240 |
| Cc1ccn2c(NC(=O)c3ccc(Cl)cc3)c(-c3ccc(F)cc3)nc2c1 | 693 |
| CCn1cnc(S(=O)(=O)N2CCC(C(=O)NCc3ccccn3)CC2)c1 | 540 |
| O=C(CCCS(=O)(=O)Cc1ccccc1)NCc1ccccc1 | 694 |
| Clc1ccc(-c2nc(NC3CCCCC3)c3ccccc3n2)cc1 | 924 |
| CCCS(=O)(=O)c1nc2ccc(NS(=O)(=O)c3ccccc3)cc2s1 | 879 |
| Cc1ccc(-c2nc(CN3CCCC3=O)no2)cc1C | 841 |
| O=[N+]([O-])c1c(NCCCO)cc(N2CCN(c3ccccn3)CC2)c2nonc12 | 584 |
| C=CCn1c(-c2ccc([N+](=O)[O-])cc2)nc2nc3ccccc3nc21 | 825 |
| CC1Oc2ccc(-c3csc(NC(=O)c4ccc(F)cc4)n3)cc2N(C)C1=O (stereo unspecified) | 1010 |
| O=C(Nc1ccc(-c2nnc3n2CCCC3)cc1)c1ccc2ccccc2n1 | 773 |
| O=C(Nc1ccc(F)c(Cl)c1)C1CCc2sc(C(=O)N3CCOCC3)cc2C1 (stereo unspecified) | 807 |
| CCN(C(C)=O)c1nc(-c2ccc(C3CCCCC3)cc2)cs1 | 848 |
| CC(C)OCCCNC(=O)c1ccc2c(c1)NC(=O)C(C(C)C)N2 (stereo unspecified) | 688 |
| O=C(CN1C(=O)COc2ccc(C(=O)N3CCCCC3)cc21)NC1CCCCCC1 | 782 |
| CCCn1ncc(N2CCC(C(=O)NCCCOC(C)C)CC2)cc1=O | 650 |

Now from value to molecule:

| RP-LC retention time [s] | Structure (SMILES) |
| --- | --- |
| 830 | CCc1nc(OCC(=O)Nc2ccccc2CC)c2ccccc2n1 |
| 736 | CC1(C(=O)N2CC=C(c3ccccc3)CC2)CCCCC(=O)N1 (stereo unspecified) |
| 836 | CCc1ccc(OCC(=O)Nc2cc3c(cc2N2CCCC2)n(C)c(=O)c(=O)n3C)cc1 |
| 697 | COc1ccc(CNC(=O)NC2CCN(c3ccc(F)cc3)C2=O)cc1 (stereo unspecified) |
| 1080 | CCOc1ccccc1-c1noc(-c2nnn3c2COC(c2cccc(OC)c2)C3)n1 (stereo unspecified) |
| 647 | CSc1cccc(NC(=O)N2CCC(n3c(C)nc4cccnc43)CC2)c1 |
| 815 | Cc1cccc(CC(=O)N2C[C@@H]3C[C@H]2C[C@@H]3NS(=O)(=O)c2cccs2)c1 |
| 787 | CCc1nnc(-c2cccn2CC(=O)Nc2cc(OC)cc(OC)c2)o1 |
| 709 | COc1ccccc1C1(CNC(=O)c2ccco2)CCOCC1 |
| 771 | Cn1ccc2c(cc(C(=O)NCc3cccc(C(F)(F)F)c3)n2C)c1=O |
| 1150 | COc1cccc(-c2csc(Cc3nc(-c4ccccc4Cl)no3)n2)c1 |
| 672 | CC1(C(=O)NCc2ccc3c(c2)OCO3)Oc2cccnc2NC1=O (stereo unspecified) |
| 988 | CCc1nc(-c2ccc3c(c2)CCN3C(=O)COc2ccccc2)no1 |
| 897 | Cc1ccc(CNC(=O)C2(C)CCCN(C(=O)Nc3ccc(C)c(C)c3)C2)cc1 (stereo unspecified) |
| 645 | O=C(NCc1ccncc1)C1CCN(C(=O)c2ncn3c2COC(c2ccc(Cl)cc2)C3)CC1 (stereo unspecified) |
| 672 | CCN1CCN(c2ccc(NC(=O)c3ccccc3Cl)cn2)C1=O |
| 866 | COc1ccc(Cn2nccc2NC(=O)c2cc(=O)c3cc(Cl)ccc3o2)cc1 |

| RP-LC retention time [s] | Structure (SMILES) |
| --- | --- |
| 1030 | CC1(C(=O)NCc2ccc(F)cc2)CCCN(C(=O)Nc2cccc(Br)c2)C1 (stereo unspecified) |
| 625 | COc1cccc(CNC(=O)N2CCc3nc[nH]c3C2)c1 |
| 809 | CCS(=O)(=O)N1CC(=O)N(c2ccccc2C)C(C)(C(=O)NCc2ccc(F)cc2)C1 (stereo unspecified) |
| 536 | O=C(NCc1cccnc1)C1CCN(c2nnc3ccc(C(F)(F)F)cn23)CC1 |
| 807 | CC(C)CCNC(=O)CN1C(=O)CCn2nc(-c3cn(C)c4ccccc34)cc21 |
| 683 | CCOc1ccc(NC(=O)C2CCCN(c3nnc4ccc(Cl)cn34)C2)cc1 (stereo unspecified) |
| 777 | COc1ccc(CNC(=O)C2CCc3nc(N4CCOCC4)ncc3C2)cc1 (stereo unspecified) |
| 978 | Cc1cccc(OCCc2noc(C3CCN(S(=O)(=O)N(C)C)C3)n2)c1 (stereo unspecified) |
| 929 | Cc1nc(-c2ccc(C(=O)N3CCCc4ccccc43)cc2)no1 |
| 764 | COc1ccc(Cl)cc1S(=O)(=O)NCCc1cn(C)c2ncccc12 |
| 967 | Cc1ccc(CNC(=O)C2(C)CCCN(C(=O)Nc3cccc(C)c3)C2)cc1 (stereo unspecified) |
| 905 | CCNC(=O)c1cc2c(n(-c3ccc(C(C)C)cc3)c1=O)CCCC2=O |
| 620 | O=C(Cc1cccs1)Nc1ccc2c(c1)CCC(=O)N2 |
| 994 | COc1cc(NC(=O)c2ccccn2)ccc1Cl |
| 728 | O=C(c1ccc2[nH]ccc2c1)N1CCN(c2cc(-c3ccccc3)[nH]n2)CC1 |
| 646 | Cn1cc2c(N3CCCC3)nc(C(=O)NCc3ccccc3C(F)(F)F)nc2n1 |
| 718 | COCCn1cc(CCNC(=O)Nc2ccc(C)cc2)c2cccnc21 |
